Read-outs that look alike come from different tables or passages of the source. Positions of bridges follow the written chain, without caps; N, C: chain ends. Residues, ends and D or L forms follow the SMILES beside them.
Assays:
rat nAChR α2β4 = biological target: T1, rat nAChR α2β4 (Rattus norvegicus, UniProt P12389+P12392); test: cell-based; conditions: IC50 α2β4
T1 construct: expressed in transfected cells; host or cells: Xenopus oocytes injected with cRNA

rat nAChR α3β4 = biological target: T2, rat nAChR α3β4 (Rattus norvegicus, UniProt P04757+P12392); test: cell-based
T2 construct: expressed in transfected cells; host or cells: Xenopus oocytes injected with cRNA
T2 sequence (P04757 26-499 limits assumed): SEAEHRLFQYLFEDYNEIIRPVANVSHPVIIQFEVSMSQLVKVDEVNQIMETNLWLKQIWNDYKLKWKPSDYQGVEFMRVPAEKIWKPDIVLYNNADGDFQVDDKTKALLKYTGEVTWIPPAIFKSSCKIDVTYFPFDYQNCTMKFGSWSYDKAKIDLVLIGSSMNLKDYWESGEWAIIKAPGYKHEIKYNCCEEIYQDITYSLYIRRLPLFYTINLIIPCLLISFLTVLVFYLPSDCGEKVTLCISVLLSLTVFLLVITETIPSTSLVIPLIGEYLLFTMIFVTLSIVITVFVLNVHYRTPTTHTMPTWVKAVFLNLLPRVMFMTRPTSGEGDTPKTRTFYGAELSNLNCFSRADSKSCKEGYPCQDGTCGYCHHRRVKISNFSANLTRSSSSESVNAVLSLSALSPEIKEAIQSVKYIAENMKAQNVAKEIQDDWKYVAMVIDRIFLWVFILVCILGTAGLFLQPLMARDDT
T2 sequence (P12392 21-495 limits assumed): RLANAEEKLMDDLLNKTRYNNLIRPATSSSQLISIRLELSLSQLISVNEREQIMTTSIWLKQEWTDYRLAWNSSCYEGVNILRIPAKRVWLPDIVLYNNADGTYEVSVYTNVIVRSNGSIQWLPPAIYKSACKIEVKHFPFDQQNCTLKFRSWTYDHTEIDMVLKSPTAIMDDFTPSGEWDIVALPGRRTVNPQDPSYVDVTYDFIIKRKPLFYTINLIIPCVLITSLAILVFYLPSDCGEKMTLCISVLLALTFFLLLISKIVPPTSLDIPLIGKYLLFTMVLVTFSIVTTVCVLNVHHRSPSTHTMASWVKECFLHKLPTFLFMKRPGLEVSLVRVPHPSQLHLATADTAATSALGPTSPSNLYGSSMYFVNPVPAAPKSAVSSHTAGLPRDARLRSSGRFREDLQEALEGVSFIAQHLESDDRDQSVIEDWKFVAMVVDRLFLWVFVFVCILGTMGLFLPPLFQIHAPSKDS

rat nAChR α3β2 [1] = biological target: T3, rat nAChR α3β2 (Rattus norvegicus, UniProt P04757+P12390); test: cell-based; format: cell-based
T3 construct: expressed in transfected cells; host or cells: Xenopus oocytes injected with cRNA
T3 sequence (P04757 26-499 limits assumed): as the sequence (P04757 26-499 limits assumed) above
T3 sequence (P12390 25-500 limits assumed): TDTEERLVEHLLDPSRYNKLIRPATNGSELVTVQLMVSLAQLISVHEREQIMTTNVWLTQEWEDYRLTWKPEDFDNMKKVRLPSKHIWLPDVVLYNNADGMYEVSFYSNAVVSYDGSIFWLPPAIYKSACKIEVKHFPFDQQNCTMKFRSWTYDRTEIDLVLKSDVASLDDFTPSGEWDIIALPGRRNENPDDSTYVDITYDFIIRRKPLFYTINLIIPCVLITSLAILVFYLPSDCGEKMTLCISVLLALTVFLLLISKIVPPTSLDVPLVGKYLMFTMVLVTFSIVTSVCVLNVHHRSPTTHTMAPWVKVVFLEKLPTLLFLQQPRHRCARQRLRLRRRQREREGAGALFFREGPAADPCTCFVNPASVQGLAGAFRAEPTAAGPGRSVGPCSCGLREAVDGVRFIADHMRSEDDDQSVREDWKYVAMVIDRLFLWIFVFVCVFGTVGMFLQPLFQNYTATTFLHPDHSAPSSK

rat nAChR α7 = biological target: T4, rat nAChR α7 (Rattus norvegicus, UniProt Q05941); test: cell-based
T4 construct: expressed in transfected cells; host or cells: Xenopus oocytes injected with cRNA
T4 sequence (Q05941 23-502 limits assumed): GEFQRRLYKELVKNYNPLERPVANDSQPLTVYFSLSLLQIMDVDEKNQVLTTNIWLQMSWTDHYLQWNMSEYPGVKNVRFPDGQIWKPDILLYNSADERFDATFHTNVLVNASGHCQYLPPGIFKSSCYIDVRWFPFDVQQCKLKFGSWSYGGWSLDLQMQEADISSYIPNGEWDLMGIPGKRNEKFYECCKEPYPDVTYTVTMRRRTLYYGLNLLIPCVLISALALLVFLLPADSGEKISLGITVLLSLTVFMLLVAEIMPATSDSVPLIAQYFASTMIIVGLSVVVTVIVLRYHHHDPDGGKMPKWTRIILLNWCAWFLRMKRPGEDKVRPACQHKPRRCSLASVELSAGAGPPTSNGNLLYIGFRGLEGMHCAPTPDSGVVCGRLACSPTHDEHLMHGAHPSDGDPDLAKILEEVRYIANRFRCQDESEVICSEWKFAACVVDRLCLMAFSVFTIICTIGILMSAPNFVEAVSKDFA

rat nAChR α2β2 = biological target: T5, rat nAChR α2β2 (Rattus norvegicus, UniProt P12389+P12390); test: cell-based
T5 construct: expressed in transfected cells; host or cells: Xenopus oocytes injected with cRNA
T5 sequence (P12389 28-511 limits assumed): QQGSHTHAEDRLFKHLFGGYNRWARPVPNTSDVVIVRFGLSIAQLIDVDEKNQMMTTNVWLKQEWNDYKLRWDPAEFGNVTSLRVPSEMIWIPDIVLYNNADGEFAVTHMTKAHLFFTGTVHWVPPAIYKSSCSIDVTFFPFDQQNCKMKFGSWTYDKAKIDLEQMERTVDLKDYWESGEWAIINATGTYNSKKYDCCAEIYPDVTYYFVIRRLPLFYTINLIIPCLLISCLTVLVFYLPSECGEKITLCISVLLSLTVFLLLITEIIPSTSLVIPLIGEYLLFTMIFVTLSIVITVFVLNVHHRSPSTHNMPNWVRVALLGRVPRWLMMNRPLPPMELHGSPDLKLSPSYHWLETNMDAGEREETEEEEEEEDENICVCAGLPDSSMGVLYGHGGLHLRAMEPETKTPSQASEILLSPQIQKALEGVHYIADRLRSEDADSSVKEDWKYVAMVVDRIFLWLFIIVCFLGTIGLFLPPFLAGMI
T5 sequence (P12390 25-500 limits assumed): as the sequence (P12390 25-500 limits assumed) above

rat nAChR α4β4 = biological target: T6, rat nAChR α4β4 (Rattus norvegicus, UniProt P09483+P12392); test: cell-based
T6 construct: expressed in transfected cells; host or cells: Xenopus oocytes injected with cRNA
T6 sequence (P09483 31-630 limits assumed): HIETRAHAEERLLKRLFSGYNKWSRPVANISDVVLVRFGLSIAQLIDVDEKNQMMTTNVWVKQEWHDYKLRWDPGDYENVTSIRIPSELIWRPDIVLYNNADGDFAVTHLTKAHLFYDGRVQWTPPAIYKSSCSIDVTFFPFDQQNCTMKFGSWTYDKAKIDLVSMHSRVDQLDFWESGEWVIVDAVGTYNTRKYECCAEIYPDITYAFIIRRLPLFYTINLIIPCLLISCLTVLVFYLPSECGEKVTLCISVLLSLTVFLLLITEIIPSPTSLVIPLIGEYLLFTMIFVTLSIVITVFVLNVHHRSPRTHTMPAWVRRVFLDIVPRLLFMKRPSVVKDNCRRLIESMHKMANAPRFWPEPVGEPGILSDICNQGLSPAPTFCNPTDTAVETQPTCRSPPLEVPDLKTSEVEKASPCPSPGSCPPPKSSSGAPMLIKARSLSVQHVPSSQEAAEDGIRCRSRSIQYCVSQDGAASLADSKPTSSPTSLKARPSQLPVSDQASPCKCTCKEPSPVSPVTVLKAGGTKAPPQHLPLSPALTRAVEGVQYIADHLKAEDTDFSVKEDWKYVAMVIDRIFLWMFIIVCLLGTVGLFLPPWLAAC
T6 sequence (P12392 21-495 limits assumed): as the sequence (P12392 21-495 limits assumed) above

rat nAChR α4β2 = biological target: T7, rat nAChR α4β2 (Rattus norvegicus, UniProt P09483+P12390); test: cell-based
T7 construct: expressed in transfected cells; host or cells: Xenopus oocytes injected with cRNA
T7 sequence (P09483 31-630 limits assumed): as the sequence (P09483 31-630 limits assumed) above
T7 sequence (P12390 25-500 limits assumed): as the sequence (P12390 25-500 limits assumed) above

rat nAChR α9α10 = biological target: T8, rat nAChR α9α10 (Rattus norvegicus, UniProt P43144+Q9JLB5); test: cell-based
T8 construct: expressed in transfected cells; host or cells: Xenopus oocytes injected with cRNA
T8 sequence (P43144 26-479 limits assumed): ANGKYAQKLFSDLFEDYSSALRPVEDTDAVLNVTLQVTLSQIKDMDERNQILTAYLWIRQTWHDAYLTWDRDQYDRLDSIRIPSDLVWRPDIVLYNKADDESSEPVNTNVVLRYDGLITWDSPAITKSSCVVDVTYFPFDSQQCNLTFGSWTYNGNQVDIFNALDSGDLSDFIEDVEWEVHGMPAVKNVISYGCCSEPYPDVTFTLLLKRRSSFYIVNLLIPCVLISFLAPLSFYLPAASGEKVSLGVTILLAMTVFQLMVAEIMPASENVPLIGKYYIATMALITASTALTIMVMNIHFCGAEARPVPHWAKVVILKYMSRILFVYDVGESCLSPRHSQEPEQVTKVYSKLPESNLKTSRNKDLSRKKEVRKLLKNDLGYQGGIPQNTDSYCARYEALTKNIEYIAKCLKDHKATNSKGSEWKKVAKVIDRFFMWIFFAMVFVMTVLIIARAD
T8 sequence (Q9JLB5 25-447 limits assumed): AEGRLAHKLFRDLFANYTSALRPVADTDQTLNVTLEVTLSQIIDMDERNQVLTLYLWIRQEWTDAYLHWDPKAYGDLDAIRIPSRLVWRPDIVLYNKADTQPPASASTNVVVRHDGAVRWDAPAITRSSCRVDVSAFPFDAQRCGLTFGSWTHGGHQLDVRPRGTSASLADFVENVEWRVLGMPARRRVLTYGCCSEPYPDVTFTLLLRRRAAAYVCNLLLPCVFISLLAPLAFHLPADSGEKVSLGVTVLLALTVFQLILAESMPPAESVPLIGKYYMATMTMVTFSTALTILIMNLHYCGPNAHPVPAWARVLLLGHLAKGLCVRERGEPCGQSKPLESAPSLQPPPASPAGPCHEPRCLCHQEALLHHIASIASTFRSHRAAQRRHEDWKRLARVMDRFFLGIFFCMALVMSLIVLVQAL

rat nAChR α6/α3β2β3 = biological target: T9, rat nAChR α6/α3β2β3 (Rattus norvegicus, UniProt P04757+P12390+P12391+P43143); test: cell-based
T9 construct: expressed in transfected cells; host or cells: Xenopus oocytes injected with cRNA

rat nAChR α3β2 [2] = biological target: T3, rat nAChR α3β2; test: cell-based; format: cell-based; remark: listed apart in the source
rat nAChR α3β2 [3] = biological target: T3, rat nAChR α3β2; conditions: cited from earlier work

T1 sequence (P12389 28-511 limits assumed): as the sequence (P12389 28-511 limits assumed) above
T1 sequence (P12392 21-495 limits assumed): as the sequence (P12392 21-495 limits assumed) above

Molecule | IC50 (rat nAChR α2β4) | IC50 (rat nAChR α3β4) | kon (rat nAChR α3β2 [1]) | koff (rat nAChR α3β2 [1]; SEM) | IC50 (rat nAChR α7) | IC50 (rat nAChR α2β2) | IC50 (rat nAChR α4β4) | IC50 (rat nAChR α4β2) | IC50 (rat nAChR α9α10) | IC50 (rat nAChR α6/α3β2β3) | IC50 (rat nAChR α3β2 [2]) | IC50 (rat nAChR α3β2 [3])
CC(C)C[C@@H]1NC(=O)[C@H](CCC(=O)O)NC(=O)[C@@H]2CCCN2C(=O)[C@H](Cc2c[nH]cn2)NC(=O)[C@H](CO)NC(=O)[C@H](C(C)C)NC(=O)[C@H](Cc2c[nH]cn2)NC(=O)[C@@H]2CSSC[C@H](NC(=O)[C@H](CCC(=O)O)NC(=O)[C@@H]3CCCN3)C(=O)N[C@@H](CSSC[C@@H](C(N)=O)NC1=O)C(=O)N[C@@H]([C@@H](C)O)C(=O)N[C@@H](Cc1c[nH]cn1)C(=O)N1CCC[C@H]1C(=O)N[C@@H](C)C(=O)N2 [Mr1.7] (H-PECCTHPACHVSHPELC-NH2; disulfide 3-9, 4-17) | > 10 µM | > 10 µM | 91300 M⁻¹ s⁻¹ | 0.00312 s⁻¹ | > 10 µM | > 10 µM | > 10 µM | > 10 µM | 0.186 µM | 0.284 µM | – | –
CC(C)C[C@@H]1NC(=O)[C@H](CCC(=O)O)NC(=O)[C@@H]2CCCN2C(=O)[C@H](CC(N)=O)NC(=O)[C@H](CO)NC(=O)[C@H](C(C)C)NC(=O)[C@H](Cc2c[nH]cn2)NC(=O)[C@@H]2CSSC[C@H](NC(=O)[C@H](CCC(=O)O)NC(=O)[C@@H]3CCCN3)C(=O)N[C@@H](CSSC[C@@H](C(N)=O)NC1=O)C(=O)N[C@@H]([C@@H](C)O)C(=O)N[C@@H](Cc1c[nH]cn1)C(=O)N1CCC[C@H]1C(=O)N[C@@H](C)C(=O)N2 [Mr1.7[H13N]] (H-PECCTHPACHVSNPELC-NH2; disulfide 3-9, 4-17) | > 10 µM | > 10 µM | – | – | 2.42 µM | > 10 µM | > 10 µM | > 10 µM | 1.83 µM | – | 0.541 µM | –
Vc1.1 | – | – | – | – | – | – | – | – | – | – | – | 5.53 µM
